Test results from ChEMBL document CHEMBL1138695, “Synthesis of stavudine amino acid ester prodrugs with broad-spectrum chemotherapeutic properties for the effective treatment of HIV/AIDS” (Bioorg Med Chem Lett, 2004).
Converted amounts (≈) assume the structure as drawn.

Test system: Klebsiella pneumoniae
Test: Antibacterial activity against Klebsiella pneumoniae
Format: functional
Settings: not given

Row | Compound | MIC [µg/mL]
1 | CCn1cc(C(=O)O)c(=O)c2cc(F)c(N3CCNCC3)cc21 [NORFLOXACIN] | 0.0381 (≈ 0.119 µM)
2 | O=C(O)c1cn(C2CC2)c2cc(N3CCNCC3)c(F)cc2c1=O [CIPROFLOXACIN] | 0.0095 (≈ 0.0287 µM)

Test system: Pseudomonas aeruginosa
Test: Antibacterial activity against Pseudomonas aeruginosa
Format: functional
Settings: not given

Row | Compound | MIC [µg/mL]
3 | CCn1cc(C(=O)O)c(=O)c2cc(F)c(N3CCNCC3)cc21 [NORFLOXACIN] | 0.0763 (≈ 0.239 µM)
4 | O=C(O)c1cn(C2CC2)c2cc(N3CCNCC3)c(F)cc2c1=O [CIPROFLOXACIN] | 0.0381 (≈ 0.115 µM)

Test system: Proteus vulgaris
Test: Antibacterial activity against Proteus vulgaris
Format: functional
Settings: not given

Row | Compound | MIC [µg/mL]
5 | CCn1cc(C(=O)O)c(=O)c2cc(F)c(N3CCNCC3)cc21 [NORFLOXACIN] | 0.0381 (≈ 0.119 µM)
6 | O=C(O)c1cn(C2CC2)c2cc(N3CCNCC3)c(F)cc2c1=O [CIPROFLOXACIN] | 0.019 (≈ 0.0573 µM)

Test system: Shigella boydii
Test: Antibacterial activity against Shigella boydii
Format: functional
Settings: not given

Row | Compound | MIC [µg/mL]
7 | CCn1cc(C(=O)O)c(=O)c2cc(F)c(N3CCNCC3)cc21 [NORFLOXACIN] | 0.0381 (≈ 0.119 µM)
8 | O=C(O)c1cn(C2CC2)c2cc(N3CCNCC3)c(F)cc2c1=O [CIPROFLOXACIN] | 0.0095 (≈ 0.0287 µM)

Test system: Salmonella typhi
Test: Antibacterial activity against […] Salmonella typhi
Format: functional, Salmonella enterica subsp. enterica serovar Typhi
Settings: Salmonella enterica

Row | Compound | MIC [µg/mL]
9 | CCn1cc(C(=O)O)c(=O)c2cc(F)c(N3CCNCC3)cc21 [NORFLOXACIN] | 0.0763 (≈ 0.239 µM)
10 | O=C(O)c1cn(C2CC2)c2cc(N3CCNCC3)c(F)cc2c1=O [CIPROFLOXACIN] | 0.019 (≈ 0.0573 µM)

Test system: Shigella sonnei
Test: Antibacterial activity against Shigella sonnei
Format: functional
Settings: not given

Row | Compound | MIC [µg/mL]
11 | CCn1cc(C(=O)O)c(=O)c2cc(F)c(N3CCNCC3)cc21 [NORFLOXACIN] | 0.0381 (≈ 0.119 µM)
12 | O=C(O)c1cn(C2CC2)c2cc(N3CCNCC3)c(F)cc2c1=O [CIPROFLOXACIN] | 0.0095 (≈ 0.0287 µM)

Test system: Staphylococcus aureus
Test: Antibacterial activity against Staphylococcus aureus
Format: functional
Settings: not given

Row | Compound | MIC [µg/mL]
13 | CCn1cc(C(=O)O)c(=O)c2cc(F)c(N3CCNCC3)cc21 [NORFLOXACIN] | 0.153 (≈ 0.478 µM)
14 | O=C(O)c1cn(C2CC2)c2cc(N3CCNCC3)c(F)cc2c1=O [CIPROFLOXACIN] | 0.0095 (≈ 0.0287 µM)

Test system: Vibrio cholerae
Test: Antibacterial activity against Vibrio cholerae 01
Format: functional
Settings: not given

Row | Compound | MIC [µg/mL]
15 | CCn1cc(C(=O)O)c(=O)c2cc(F)c(N3CCNCC3)cc21 [NORFLOXACIN] | 0.0763 (≈ 0.239 µM)
16 | O=C(O)c1cn(C2CC2)c2cc(N3CCNCC3)c(F)cc2c1=O [CIPROFLOXACIN] | 0.0095 (≈ 0.0287 µM)

Test system: Citrobacter freundii
Test: Antibacterial activity against Citrobacter ferundii
Format: functional
Settings: not given

Row | Compound | MIC [µg/mL]
17 | CCn1cc(C(=O)O)c(=O)c2cc(F)c(N3CCNCC3)cc21 [NORFLOXACIN] | 0.0381 (≈ 0.119 µM)
18 | O=C(O)c1cn(C2CC2)c2cc(N3CCNCC3)c(F)cc2c1=O [CIPROFLOXACIN] | 0.0095 (≈ 0.0287 µM)

Test system: Vibrio mimicus
Test: Antibacterial activity against Vibrio mimicus
Format: functional
Settings: not given

Row | Compound | MIC [µg/mL]
19 | CCn1cc(C(=O)O)c(=O)c2cc(F)c(N3CCNCC3)cc21 [NORFLOXACIN] | 0.153 (≈ 0.478 µM)
20 | O=C(O)c1cn(C2CC2)c2cc(N3CCNCC3)c(F)cc2c1=O [CIPROFLOXACIN] | 0.0095 (≈ 0.0287 µM)

Test system: Salmonella paratyphi
Test: Antibacterial activity against Salmonella paratyphi A
Format: functional, Salmonella enterica subsp. enterica serovar Paratyphi A
Settings: Salmonella enterica

Row | Compound | MIC [µg/mL]
21 | CCn1cc(C(=O)O)c(=O)c2cc(F)c(N3CCNCC3)cc21 [NORFLOXACIN] | 0.0381 (≈ 0.119 µM)
22 | O=C(O)c1cn(C2CC2)c2cc(N3CCNCC3)c(F)cc2c1=O [CIPROFLOXACIN] | 0.019 (≈ 0.0573 µM)

Test system: Salmonella enteritidis
Test: Antibacterial activity against Salmonella enteritidis
Format: functional, Salmonella enterica subsp. enterica serovar Enteritidis
Settings: Salmonella enterica

Row | Compound | MIC [µg/mL]
23 | CCn1cc(C(=O)O)c(=O)c2cc(F)c(N3CCNCC3)cc21 [NORFLOXACIN] | 0.0381 (≈ 0.119 µM)
24 | O=C(O)c1cn(C2CC2)c2cc(N3CCNCC3)c(F)cc2c1=O [CIPROFLOXACIN] | 0.0095 (≈ 0.0287 µM)

Test system: Vibrio fluvialis
Test: Antibacterial activity against Vibrio fluvialis
Format: functional
Settings: not given

Row | Compound | MIC [µg/mL]
25 | CCn1cc(C(=O)O)c(=O)c2cc(F)c(N3CCNCC3)cc21 [NORFLOXACIN] | 0.0763 (≈ 0.239 µM)
26 | O=C(O)c1cn(C2CC2)c2cc(N3CCNCC3)c(F)cc2c1=O [CIPROFLOXACIN] | 0.0095 (≈ 0.0287 µM)

Test system: Vibrio parahaemolyticus
Test: Antibacterial activity against Vibrio parahaemolyticus
Format: functional
Settings: not given

Row | Compound | MIC [µg/mL]
27 | CCn1cc(C(=O)O)c(=O)c2cc(F)c(N3CCNCC3)cc21 [NORFLOXACIN] | 0.0763 (≈ 0.239 µM)
28 | O=C(O)c1cn(C2CC2)c2cc(N3CCNCC3)c(F)cc2c1=O [CIPROFLOXACIN] | 0.0095 (≈ 0.0287 µM)

Test system: Priestia megaterium
Test: Antibacterial activity against Bacillus megatherium
Format: functional
Settings: not given

Row | Compound | MIC [µg/mL]
29 | CCn1cc(C(=O)O)c(=O)c2cc(F)c(N3CCNCC3)cc21 [NORFLOXACIN] | 0.0763 (≈ 0.239 µM)
30 | O=C(O)c1cn(C2CC2)c2cc(N3CCNCC3)c(F)cc2c1=O [CIPROFLOXACIN] | 0.0095 (≈ 0.0287 µM)

Test system: Morganella morganii
Test: Antibacterial activity against Morganella morganii
Format: functional
Settings: not given

Row | Compound | MIC [µg/mL]
31 | CCn1cc(C(=O)O)c(=O)c2cc(F)c(N3CCNCC3)cc21 [NORFLOXACIN] | 0.0763 (≈ 0.239 µM)
32 | O=C(O)c1cn(C2CC2)c2cc(N3CCNCC3)c(F)cc2c1=O [CIPROFLOXACIN] | 0.0095 (≈ 0.0287 µM)

Test system: Vibrio cholerae
Test: Antibacterial activity against Vibrio cholerae 0139
Format: functional
Settings: not given

Row | Compound | MIC [µg/mL]
33 | CCn1cc(C(=O)O)c(=O)c2cc(F)c(N3CCNCC3)cc21 [NORFLOXACIN] | 0.0763 (≈ 0.239 µM)
34 | O=C(O)c1cn(C2CC2)c2cc(N3CCNCC3)c(F)cc2c1=O [CIPROFLOXACIN] | 0.0095 (≈ 0.0287 µM)

Test system: Escherichia coli
Test: Antibacterial activity against Escherichia coli NCTC 10418
Format: functional
Settings: not given

Row | Compound | MIC [µg/mL]
35 | CCn1cc(C(=O)O)c(=O)c2cc(F)c(N3CCNCC3)cc21 [NORFLOXACIN] | 0.0381 (≈ 0.119 µM)
36 | O=C(O)c1cn(C2CC2)c2cc(N3CCNCC3)c(F)cc2c1=O [CIPROFLOXACIN] | 0.019 (≈ 0.0573 µM)

Test system: Klebsiella pneumoniae
Test: Antibacterial activity against Klebsiella ozaenae
Format: functional
Settings: subsp. ozaenae

Row | Compound | MIC [µg/mL]
37 | CCn1cc(C(=O)O)c(=O)c2cc(F)c(N3CCNCC3)cc21 [NORFLOXACIN] | 0.0381 (≈ 0.119 µM)
38 | O=C(O)c1cn(C2CC2)c2cc(N3CCNCC3)c(F)cc2c1=O [CIPROFLOXACIN] | 0.0381 (≈ 0.115 µM)

Test system: Salmonella typhimurium
Test: Antibacterial activity against Salmonella Typhimurium
Format: functional, Salmonella enterica subsp. enterica serovar Typhimurium
Settings: Salmonella enterica

Row | Compound | MIC [µg/mL]
39 | CCn1cc(C(=O)O)c(=O)c2cc(F)c(N3CCNCC3)cc21 [NORFLOXACIN] | 0.0763 (≈ 0.239 µM)
40 | O=C(O)c1cn(C2CC2)c2cc(N3CCNCC3)c(F)cc2c1=O [CIPROFLOXACIN] | 0.0095 (≈ 0.0287 µM)

Test system: Enterobacter
Test: Antibacterial activity against Enterobacter
Format: functional
Settings: not given

Row | Compound | MIC [µg/mL]
41 | CCn1cc(C(=O)O)c(=O)c2cc(F)c(N3CCNCC3)cc21 [NORFLOXACIN] | 0.0763 (≈ 0.239 µM)
42 | O=C(O)c1cn(C2CC2)c2cc(N3CCNCC3)c(F)cc2c1=O [CIPROFLOXACIN] | 0.019 (≈ 0.0573 µM)

Test system: Edwardsiella tarda
Test: Antibacterial activity against Edwardsiella tarda
Format: functional
Settings: not given

Row | Compound | MIC [µg/mL]
43 | CCn1cc(C(=O)O)c(=O)c2cc(F)c(N3CCNCC3)cc21 [NORFLOXACIN] | 0.0381 (≈ 0.119 µM)
44 | O=C(O)c1cn(C2CC2)c2cc(N3CCNCC3)c(F)cc2c1=O [CIPROFLOXACIN] | 0.0095 (≈ 0.0287 µM)

Test system: Plesiomonas shigelloides
Test: Antibacterial activity against Plesiomonas shigelloides
Format: functional
Settings: not given

Row | Compound | MIC [µg/mL]
45 | CCn1cc(C(=O)O)c(=O)c2cc(F)c(N3CCNCC3)cc21 [NORFLOXACIN] | 0.0763 (≈ 0.239 µM)
46 | O=C(O)c1cn(C2CC2)c2cc(N3CCNCC3)c(F)cc2c1=O [CIPROFLOXACIN] | 0.019 (≈ 0.0573 µM)

Test system: Proteus mirabilis
Test: Antibacterial activity against Proteus mirabilis
Format: functional
Settings: not given

Row | Compound | MIC [µg/mL]
47 | CCn1cc(C(=O)O)c(=O)c2cc(F)c(N3CCNCC3)cc21 [NORFLOXACIN] | 0.0763 (≈ 0.239 µM)
48 | O=C(O)c1cn(C2CC2)c2cc(N3CCNCC3)c(F)cc2c1=O [CIPROFLOXACIN] | 0.0095 (≈ 0.0287 µM)
